Assay results published in patent publication US20040102454A1, “Phenylahistin and the phenylahistin analogs, a new class of anti-tumor compounds” (priority 1998, published 2004).

How the values were obtained:
[1] = system: Lewis Lung Carcinoma cells; assay: In vivo antitumor activity against Lewis Lung Carcinoma
Procedure: (§1) Male BDF1 mice (6 weeks old) were inoculated subcutaneously in the right flank region with Lewis Lung Carcinoma cells (1×10^5 cells/body) on day 0. PLH [(−)-PLH content; 41.7%] was suspended in 10% ethanol-saline, and was administered daily at a dose of 24 mg/kg, 72 mg/kg, or 240 mg/kg intraperitoneally, as a single injection (0.2 ml/body), from days 1 to 14. Each group consisted of six mice. Mice were weighed, and the length (L) and the width (W) of the tumor were measured three times a week. On day 15, mice were sacrificed, and the tumor was excised and weighed. The estimated tumor weight (ETW) was calculated according to the following formula:
(§2) ETW (mg)=L (mm)×W^2 (mm^2 )/2,
where L represents the length of the tumor and W represents the width of the tumor. The suppression rate was calculated according to the following formula:
(§3) Suppression rate (%)=[1×(TWt/TWc)]×100,
(§4) Average and standard errors were calculated for each group. Variance analysis was performed by the Bartlett method (significance level: 5%), and if the variance was uniform, a Dunnett's multiple comparison test was performed. However, if the variance was not uniform, rank conversion was performed followed by variance analysis again by the Bartlett method (significance level: 5%). Significance was established at the p<0.05 level.

Colon 26 cells = assay: In vivo antitumor activity against Colon 26
Procedure: as §1, §2, §3, §4
Male CDFI mice (6 weeks old) were inoculated subcutaneously in the right flank region with Colon 26 cells (1×10^5 cells/body) on day 0. Each group consisted of six mice. Preparation and administration of PLH, and the evaluation of antitumor activity was carried out as described for Lewis Lung Carcinoma, in EXAMPLE 14.

Cell strain A431 = assay: Cell cycle inhibiting activity, flow cytometer and microscopic observation; format: cell-based, human
Procedure: Cell strain A431 derived from […] was used. EMEM culture medium containing 10% bovine fetus serum and 1% MEM nonessential amino acid solution (SIGMA M2025) was used to incubate A431 cells at 37° C. in an incubator saturated with 5% carbon dioxide gas and water vapor. The refined specimen of racemic phenylahistin obtained in EXAMPLE 1 was added to the cells in the log-growth phase and progression of the cell cycle was analyzed by flow cytometer and microscopic observation. The results, shown in Table 1, indicate that this phenylahistin was useful as a cell cycle inhibitor.

[2] = system: yeast strain Saccharomyces cerevisise HF7C; assay: Antimicrobial test, liquid culture medium dilution method; format: cell-based
Procedure: Using colibacillus strain JM109 as a gram-negative bacterium, Bacillus natto as a […] and Aspergillus niger IFO6341 as a mold, the following antimicrobial test was conducted by the filter paper agar flat plate method, wherein 100 μg of specimen was placed on 9 mm filter paper, dried in air, and standard agar culture medium was used for bacteria and potato dextrose agar culture medium for mold. […] An antimicrobial test was further conducted by the liquid culture medium dilution method using the yeast strain Saccharomyces cerevisise HF7C.

C. glabrata = assay: Antifungal susceptibility testing, broth dilution (NCCLS M38-A); format: cell-based, Candida glabrata; settings: Nakaseomyces glabratus; C. glabrata; 80% reduction in turbidity; read-out: MIC
Procedure: (§5) Antifungal susceptibility testing was accomplished according to the methods outlined in the National Committee for Clinical Laboratory Standards, M38-A “Reference Method for Broth Dilution Antifungal Susceptibility Testing of Conidium-Forming Filamentous Fungi; Approved Standard.” This includes testing in RPMI-1640 with glutamine and without bicarbonate, an inoculum size of 0.4-5×10^4, and incubation at 30 or 35° C. for 48 hours. […] Drug concentrations were 0.03-16 μg/ml for the investigational compounds, 0.015-8 μg/ml for itraconazole and griseofulvin.
(§6) The minimum lethal concentration (MLC) was determined by plating […] from the MIC concentration and each concentration above the MIC. […] When a MIC was obtained, a minimum fungicidal concentration (MFC) was determined to assess the fungistatic/fungicidal nature of the compound. […] The compound is scored as fungistatic if the cells are able to resume growth and fungicidal if no regrowth is possible because the compound had killed the organisms.

A. fumigatus isolate #2 = assay: as above; format: cell-based; settings: Aspergillus fumigatus, 80% reduction in turbidity
Procedure: as §5, §6

A. fumigatus isolate #1 = assay: as above; format: cell-based; settings: Aspergillus fumigatus, 80% reduction in turbidity
Procedure: as §5, §6

P388 cells = assay: Cell cycle progression of P388, flow cytometer; format: cell-based, murine; settings: 1×10^−6 M, 8-hour incubation
Procedure: The effect of phenylahistin on the cell cycle progression of P388 cells was also investigated using a flow cytometer, as described in Krishan, A., J. Cell Biol. (1975) 66, 188-193. P388 cells in the log growth phase were seeded into flasks and cultured for 14 hours, and then various concentrations of phenylahistin were added to each flask. After an 8-hour incubation, the cells were harvested and fixed with 50% MeOH at −20° C. overnight. The cells were washed with 30% MeOH and then with 10 mM PBS, and treated with 50 :g/ml propidium iodide at 4° C. for 2 hours. DNA histograms were obtained using a flow cytometer (Cyto ACE-300:JASCO).

[3] = calculated from (−)-PLH content 41.7%

## C=CC(C)(C)c1[nH]cnc1/C=C1\NC(=O)[C@H](Cc2ccccc2)NC1=O (racemic) [PLH, phenylahistin]
[1]; 24 mg/kg/day
  rate of suppression (excised tumor weight): 9.9%
  weight of the excised tumor on the fifteenth day: 2,941 mg
[1]; 24 mg/kg/day, day 7
  estimated tumor weight (ETW): 86 mg
[1]; 24 mg/kg/day, day 15
  estimated tumor weight (ETW): 2,244 mg
[1]; 72 mg/kg/day
  rate of suppression (excised tumor weight): 27.1%
  weight of the excised tumor on the fifteenth day: 2,380 mg
[1]; 72 mg/kg/day, day 7
  estimated tumor weight (ETW): 34 mg
[1]; 72 mg/kg/day, day 15
  estimated tumor weight (ETW): 2,142 mg
[1]; 72 mg/kg/day, on day 11
  mice died: 1 mouse
[1]; 240 mg/kg/day
  body weight: markedly lower than control values after day 3, and significantly lower on day 6
  rate of suppression (excised tumor weight): 81.0%
  weight of the excised tumor on the fifteenth day: 619 mg
[1]; 240 mg/kg/day, day 7
  estimated tumor weight (ETW): 34 mg
[1]; 240 mg/kg/day, day 10
  suppression of the ETW: 81.8%
[1]; 240 mg/kg/day, day 13
  suppression of the ETW: 82.3%
[1]; 240 mg/kg/day, day 15
  estimated tumor weight (ETW): 617 mg
  suppression of the ETW: 73.2%
[1]; 240 mg/kg/day, on day 13
  mice died: 1 mouse
[1]; 24 and 72 mg/kg/day
  body weight: little change in body weight
[1]; PLH with (−)-PLH content 41.7%
  95% confidence limit of ED50: 22.0˜504.1 mg/kg/day
[1]; linear regression of suppression rate, PLH with (−)-PLH content 41.7%
  ED50: 105.3 mg/kg/day
[1]; mouse, in vivo
  mice died: None
Colon 26 cells; 24 mg/kg/day
  rate of suppression (excised tumor weight): 4.0%
  weight of the excised tumor on the fifteenth day: 1,113 mg
Colon 26 cells; 24 mg/kg/day and 72 mg/kg/day
  body weight: No marked changes in the weight
  increments of ETW: slightly lower than those of the control group
Colon 26 cells; 72 mg/kg/day
  rate of suppression (excised tumor weight): 27.3%
  weight of the excised tumor on the fifteenth day: 843 mg
Colon 26 cells; 240 mg/kg/day
  body weight: lower than that of the control group from day 3
  mice died: one mouse died on day 12, two died on day 13 and one died on day 14
  rate of suppression (excised tumor weight): 81.8%
  weight of the excised tumor on the fifteenth day: 211 mg
Colon 26 cells; 240 mg/kg/day, day 7
  ETW: 14 mg
Colon 26 cells; 240 mg/kg/day, day 10
  suppression rate (ETW): 64.4%
Colon 26 cells; 240 mg/kg/day, day 13
  suppression rate (ETW): 78.8%
Colon 26 cells; 240 mg/kg/day, day 15
  ETW: 254 mg
  suppression rate (ETW): 85.4%
Colon 26 cells; PLH with (−)-PLH content 41.7%
  95% confidence limit of ED50: 29.0˜397.7 mg/kg/day
  ED50: 107.3 mg/kg/day
Colon 26 cells; mouse, in vivo
  mice died: No mice died
Cell strain A431; Concentration 0.5 μg/ml
  Inhibiting effect (cell cycle): Absent (Absent: The cell cycle stopped at the G2/M phase in less than 10% of the cells.)
Cell strain A431; Concentration 1.0 μg/ml
  Inhibiting effect (cell cycle): Absent (Absent: The cell cycle stopped at the G2/M phase in less than 10% of the cells.)
Cell strain A431; Concentration 2.0 μg/ml
  Inhibiting effect (cell cycle): Slight (Slight: The cell cycle stopped at the G2/M phase in not less than 10% and less than 50% of the cells.)
Cell strain A431; Concentration 4.0 μg/ml
  Inhibiting effect (cell cycle): Slight (Slight: The cell cycle stopped at the G2/M phase in not less than 10% and less than 50% of the cells.)
Cell strain A431; Concentration 8.0 μg/ml
  Inhibiting effect (cell cycle): Present (Present: The cell cycle stopped at the G2/M phase in not less that 50% of the cells.)
Cell strain A431; Concentration 32.0 μg/ml
  Inhibiting effect (cell cycle): Present (Present: The cell cycle stopped at the G2/M phase in not less that 50% of the cells.)
[2]
  antimicrobial activity: no antimicrobial activity

## C=CC(C)(C)c1[nH]cnc1/C=C1\NC(=O)[C@H](Cc2ccccc2)NC1=O [(−)-phenylahistin]
C. glabrata
  MIC: > 70 mg/L
[1]; [3]
  95% confidence limit of ED50, as (−)-PLH: 9.2˜210.2 mg/kg/day
  ED50, calculated dose of (−)-PLH: 43.9 mg/kg/day
A. fumigatus isolate #2
  MIC: > 16 mg/L
A. fumigatus isolate #1
  MIC: > 16 mg/L
Colon 26 cells; [3]
  95% confidence limit of ED50, as (−)-PLH: 12.1˜165.8 mg/kg/day
  ED50, calculated dose of (−)-PLH: 44.7 mg/kg/day
P388 cells
  cell cycle inhibitory activity (G2/M): exhibited cell cycle inhibitory activity
P388 cells; listed as (−)-PLH
  cell cycle inhibitory activity (G2/M): completely inhibits the cell cycle progression
